Tested on: CHD
Assay: Meta-analysis of CARE and WOSCOPS combined, synergy index, CHD endpoint
Format: in vivo, human
Text: Tables 4-5 provide meta-analyses of CARE and WOSCOPS combined (2nd section of each table) for two endpoints (CHD and CVD) and three genetic models (dominant, recessive, and additive), as well as logistic regression analyses of CARE (3rd section of each table) and WOSCOPS (4th section of each table) individually.
Tables 12 and 17 provide results of meta-analysis of the CARE and WOSCOPS sample sets combined by direct genotyping and by imputing genotypes.
“P” indicates the p-value, and “P(R)” (or “P.R.”) indicates the p-value random effect. Both of these are p-values corresponding to a statistical test of whether the combined synergy index is equal to one but use different assumptions to derive the p-value. “P” is calculated using a fixed effects model, and “P(R)” is calculated using a random effects model.
“OR” indicates the odds ratio (synergy index) calculated from a fixed effects model, and “OR(R)” (or “OR.R.”) indicates the odds ratio (synergy index) calculated from a random effects model.

[1] = rs11743355 allele C DOMINANT Imputed
[2] = rs11746806 allele T ADDITIVE Imputed
[3] = rs11746806 allele T DOMINANT Imputed
[4] = rs11746959 allele T ADDITIVE Imputed
[5] = rs11746959 allele T DOMINANT Imputed
[6] = rs11749272 allele T DOMINANT Imputed
[7] = rs11901899 allele A DOMINANT Imputed
[8] = rs11926319 allele G ADDITIVE Imputed
[9] = rs11926319 allele G DOMINANT Imputed
[10] = rs11956952 allele C DOMINANT Imputed
[11] = rs12025826 allele G DOMINANT Imputed
[12] = rs12153185 allele T DOMINANT Imputed
[13] = rs12182651 allele T ADDITIVE Imputed
[14] = rs12182651 allele T DOMINANT Imputed
[15] = rs12193568 allele G DOMINANT Imputed
[16] = rs12264914 allele C DOMINANT Imputed
[17] = rs12307767 allele C DOMINANT Imputed
[18] = rs12407412 allele C ADDITIVE Imputed
[19] = rs12407412 allele C DOMINANT Imputed
[20] = rs12420184 allele G DOMINANT Imputed
[21] = rs12422750 allele A DOMINANT Imputed
[22] = rs12446951 allele A ADDITIVE Imputed
[23] = rs12446951 allele A DOMINANT Imputed
[24] = rs12457400 allele G DOMINANT Imputed
[25] = rs12521291 allele G ADDITIVE Imputed
[26] = rs12526849 allele T ADDITIVE Imputed
[27] = rs12526849 allele T GENOTYPIC Imputed
[28] = rs12543110 allele G DOMINANT Imputed
[29] = rs12678600 allele A DOMINANT Imputed
[30] = rs12719415 allele T DOMINANT Imputed
[31] = rs12831292 allele G DOMINANT Imputed

CC[C@H](C)C(=O)O[C@H]1C[C@H](O)C=C2C=C[C@H](C)[C@H](CC[C@@H](O)C[C@@H](O)CC(=O)O)[C@H]21 [Pravastatin, pravastatin]
OR(R) (rs11743355 allele C ADDITIVE Imputed): 0.1796 | OR [1]: 0.1817 | OR(R) [1]: 0.1817 | OR [2]: 0.2206 | OR(R) [2]: 0.2206 | OR [3]: 0.2253 | OR(R) [3]: 0.2253 | OR [4]: 0.1976 | OR(R) [4]: 0.1976 | OR [5]: 0.2007 | OR(R) [5]: 0.2007 | OR [6]: 0.5734 | OR(R) [6]: 0.5734 | OR [7]: 1.5824 | OR(R) [7]: 1.5824 | Meta-analysis OR (rs11925875 allele A vs G (ref)): 0.66 | OR [8]: 0.4343 | OR(R) [8]: 0.4343 | OR [9]: 0.4237 | OR(R) [9]: 0.4237 | OR [10]: 0.6564 | OR(R) [10]: 0.6564 | OR [11]: 1.5794 | OR(R) [11]: 1.5794 | OR [12]: 0.5759 | OR(R) [12]: 0.5759 | OR [13]: 2.1926 | OR(R) [13]: 2.1926 | OR [14]: 2.4795 | OR(R) [14]: 2.4795 | OR [15]: 1.7403 | OR(R) [15]: 1.8042 | OR [16]: 0.6442 | OR(R) [16]: 0.6442 | OR [17]: 0.6667 | OR(R) [17]: 0.6667 | OR [18]: 1.6268 | OR(R) [18]: 1.6268 | OR [19]: 1.7055 | OR(R) [19]: 1.7055 | OR [20]: 0.5645 | OR(R) [20]: 0.5645 | OR [21]: 0.6919 | OR(R) [21]: 0.6919 | OR [22]: 2.3413 | OR(R) [22]: 2.3413 | OR [23]: 2.3135 | OR(R) [23]: 2.3135 | OR [24]: 0.5884 | OR(R) [24]: 0.5884 | OR [25]: 0.6857 | OR(R) [25]: 0.6857 | OR [26]: 1.4208 | OR(R) [26]: 1.4208 | OR [27]: 2.0445 | OR(R) [27]: 2.0445 | OR [28]: 1.6401 | OR(R) [28]: 1.6401 | Meta-analysis OR (rs12556591 allele G vs A (ref)): 0.59 | Meta-analysis OR (rs12657484, allele A1 G (non-ref), A2 A (ref), endpoint/model not given): 1.49 | OR [29]: 0.6104 | OR(R) [29]: 0.6104 | OR [30]: 0.5662 | OR(R) [30]: 0.5662 | OR [31]: 0.5982 | OR(R) [31]: 0.5982 | Meta-analysis OR (rs13279522 allele G vs A (ref)): 0.62 | Meta-analysis OR (rs13314266 allele G vs A (ref)): 0.51 | Meta-analysis OR (rs13318232 allele G vs A (ref)): 0.52 | Meta-analysis OR (rs16861467, allele A1 G (non-ref), A2 A (ref), endpoint/model not given): 0.49 | Meta-analysis OR (rs17076974 allele A vs G (ref)): 1.40 | Meta-analysis OR (rs17546598 allele A vs G (ref)): 1.71 | Meta-analysis OR (rs17706237 allele G vs A (ref)): 1.69 | Meta-analysis OR (rs17716275, allele A1 A (non-ref), A2 G (ref), endpoint/model not given): 2.03 | Meta-analysis OR (rs72746987 allele A vs G (ref)): 0.40

— US10563263B2, “Genetic polymorphisms associated with statin response and cardiovascular diseases, methods of detection and uses thereof” (CELERA CORPORATION, priority 2010, dated 2020)
